Assay results as given in patent US9545384B2, “Nanoparticles comprising drug, a non-ionizable cellulosic polymer and tocopheryl polyethylene glocol succinate” (Bend Research, Inc., priority 2007, dated 2017).
≈ marks a conversion by molar mass, not a printed value.

Legend:
[1] = Solubility of drug in model fasted duodenal (MFD) solution; format: physicochemical; conditions: fassgf or other biorelevant
[2] = for Observations: pH 6.5
Description: The polymer is a poorly aqueous soluble non-ionizable cellulosic polymer. […] An appropriate PBS solution is an aqueous solution comprising 20 mM sodium phosphate (Na2HPO4), 47 mM potassium phosphate (KH2PO4), 87 mM NaCl, and 0.2 mM KCl, adjusted to pH 6.5 with NaOH. A test to determine whether the polymer is insoluble may be performed as follows. The polymer is initially present in bulk powder form with average particle sizes of greater than about 1 micron. The polymer alone is administered at a concentration of 0.2 mg/mL to the PBS solution and stirred for approximately 1 hour at room temperature. Next, a nylon 0.45 μm filter is weighed, and the polymer solution is filtered. The filter is dried overnight at 40° C., and weighed the following morning. The amount of polymer dissolved is calculated from the amount of polymer added to the PBS solution minus the amount of polymer remaining on the filter (mg). […] These polymers were evaluated using the following procedure to determine their aqueous solubility. First, 0.2 mg/mL of the polymer is added to a PBS solution consisting of 20 mM Na2HPO4, 47 mM KH2PO4, 87 mM NaCl, and 0.2 mM KCl, adjusted to pH 6.5 with NaOH. The polymer is stirred in the PBS solution for approximately 1 hour at room temperature. Next, the polymer solution is filtered through a nylon 0.45 μm filter that had been weighed dry prior to filtration. The filter is dried overnight at 40° C., and weighed the following morning. The amount of soluble polymer is calculated from amount of polymer added to form the polymer solution minus the amount of polymer remaining on the filter.

[3] = Solubility of drug in water; format: physicochemical
Log P = format: physicochemical; conditions: octanol/water
From the text: The first property of hydrophobic drugs is that they are extremely hydrophobic. Log P, defined as the base 10 logarithm of the ratio of the drug solubility in octanol to the drug solubility in water, is a widely accepted measure of hydrophobicity. By “extremely hydrophobic” is meant that the Log P value of the drug is at least 4.0, preferably at least 4.5, and most preferably at least 5.0. Log P may be measured experimentally or calculated using methods known in the art. When using a calculated value for Log P, the highest value calculated using any generally accepted method for calculating Log P is used. Calculated Log P values are often referred to by the calculation method, such as C log P, A log P, and M log P. The Log P may also be estimated using fragmentation methods, such as Crippen's fragmentation method (27 J. Chem. Inf. Comput. Sci. 21 (1987)); Viswanadhan's fragmentation method (29 J. Chem. Inf. Comput. Sci. 163 (1989)); or Broto's fragmentation method (19 Eur. J. Med. Chem.-Chim. Theor. 71 (1984). Preferably the Log P value is calculated by using the average value estimated using Crippen's, Viswanadhan's, and Broto's fragmentation methods.

Row | Compound | solubility [1] [µg/mL] | Soluble at pH 6.5 [2] [mg/mL] | Observations [2] | solubility [3] [µg/mL] | other results
1 | Cc1ccc(-c2cc(C(F)(F)F)nn2-c2ccc(S(N)(=O)=O)cc2)cc1 [Drug 3, 4-[5-(4-methylphenyl)-3-(trifluoromethyl)-1H-pyrazol-1-yl]benzenesulfonamide, reference compound] | ~40 (≈ 105 µM) | – | – | – | –
2 | Ethylcellulose | – | <0.001 | Fine particle | – | –
3 | Cellulose Acetate | – | 0.03 | Fine particle | – | –
4 | Cc1onc(-c2ccccc2)c1-c1ccc(S(N)(=O)=O)cc1 [Drug 1, 4-(5-methyl-3-phenyl-4-isoxazolyl)benzenesulfonamide] | – | – | – | ~10 (≈ 31.8 µM) | logP (Log P): ~3

Further lines, with some results ahead:

Row | solubility [1] [µg/mL] | Soluble at pH 6.5 [2] [mg/mL] | Observations [2] | solubility [3] [µg/mL] | Compound | other results
5 | – | – | – | < 0.1 | CCOC(=O)N1c2ccc(C(F)(F)F)cc2[C@@H](N(Cc2cc(C(F)(F)F)cc(C(F)(F)F)c2)C(=O)OC)C[C@H]1CC [Torcetrapib, [2R,4S]4-[(3,5-bis-trifluoromethyl-benzyl)-methoxycarbonyl-amino]-2-ethyl-6-trifluoromethyl-3,4-dihydro-2H-quinoline-1-carboxylic acid ethyl ester] | –
6 | ~11 (≈ 18.4 µM) | – | – | – | CC[C@@H]1C[C@H](N(Cc2cc(C(F)(F)F)cc(C(F)(F)F)c2)C(C)=O)c2cc(C(F)(F)F)ccc2N1C(=O)OC(C)C [Drug 2, [2R,4S]-4-[acetyl-(3,5-bis-trifluoromethyl-benzyl)-amino]-2-ethyl-6-trifluoromethyl-3,4-dihydro-2H-quinoline-1-carboxylic acid isopropyl ester] | –
